Test results reported in US11332463B2, “Spiropiperidine allosteric modulators of nicotinic acetylcholine receptors” (Merck Sharp & Dohme Corp., priority 2018, dated 2022).
pEC50: −log10 of the molar value. Like-named read-outs stand apart in the source and are kept apart here.

Target: T1, human α7 nicotinic acetylcholine receptor (HEK cell line stably expressing human RIC-3 and human α7) (Homo sapiens, UniProt P36544)
T1 construct: host or cells: HEK cell line (PrecisION hnAChR α7/RIC-3)
Test: Automated patch-clamp electrophysiology functional assay (Assay A), IonFlux HT, whole-cell population patch
Assay type: cell-based
Settings: for EC50: α7 nAChR EC50 (nM)

[1] = HEK cells expressing human α7/RIC-3, test compound with or without 40 μM acetylcholine, holding potential −60 mV, room temperature, read-out: α7 nAChR Potency
[2] = automated patch-clamp electrophysiology functional assay (Assay A), read-out: α7 nAChR EC50
[3] = automated patch-clamp electrophysiology functional assay (Assay A)
[4] = α7 nAChR Potency, HEK cells expressing human α7/RIC-3, test compound with or without 40 μM acetylcholine, holding potential −60 mV, room temperature

T1 sequence (P36544 23-502): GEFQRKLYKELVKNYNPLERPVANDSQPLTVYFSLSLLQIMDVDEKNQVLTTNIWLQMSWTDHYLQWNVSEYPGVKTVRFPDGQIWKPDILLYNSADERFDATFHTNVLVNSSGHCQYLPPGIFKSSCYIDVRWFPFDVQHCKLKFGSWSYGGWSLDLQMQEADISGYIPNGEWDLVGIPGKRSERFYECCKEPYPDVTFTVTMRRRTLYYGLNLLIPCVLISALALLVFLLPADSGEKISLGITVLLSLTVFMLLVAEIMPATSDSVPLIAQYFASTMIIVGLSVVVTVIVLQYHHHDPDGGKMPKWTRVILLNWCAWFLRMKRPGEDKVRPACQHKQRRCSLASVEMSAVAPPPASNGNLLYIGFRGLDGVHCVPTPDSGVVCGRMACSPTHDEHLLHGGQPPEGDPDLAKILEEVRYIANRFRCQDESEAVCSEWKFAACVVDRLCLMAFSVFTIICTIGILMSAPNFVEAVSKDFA

Row | SMILES | pEC50 [1] | pEC50 [2] | EC50 [3] | pEC50 [4]
1 | Cc1c(-c2nc([C@@H]3C(F)(F)C34CCN(S(N)(=O)=O)CC4)no2)c(C(F)(F)F)nn1C1CC1 [Example E54] | 6.30 to 7.00 | 6.30 |  | 
2 | NS(=O)(=O)N1CCC2(CC1)[C@H](c1noc(-c3c(C4CC4)noc3C(F)(F)F)n1)C2(F)F [Example E55] | > 7.00 | 7.52 |  | 
3 | NS(=O)(=O)N1CCC2(CC1)[C@H](c1noc(-c3cccnc3)n1)C2(F)F [Example E56] | 5.30 to 6.30 | 5.59 |  | 
4 | NS(=O)(=O)N1CCC2(CC1)C[C@H]2c1noc(-c2cnccc2C(F)(F)F)n1 [Example E57] | 5.30 to 6.30 |  |  | 
5 | NS(=O)(=O)N1CCC2(CC1)C[C@H]2c1noc(-c2cccnc2C(F)(F)F)n1 [Example E58] | 5.30 to 6.30 | 5.47 |  | 
6 | NS(=O)(=O)N1CCC2(CC1)C[C@H]2c1noc(-c2cccnc2OCC(F)(F)F)n1 [Example E59] | 6.30 to 7.00 | 6.66 |  | 
7 | NS(=O)(=O)N1CCC2(CC1)C[C@H]2c1noc(-c2cncc(OCC(F)(F)F)c2)n1 [Example E60] | 5.30 to 6.30 | 5.64 |  | 
8 | Cc1ncc(C(F)(F)F)cc1-c1nc([C@@H]2CC23CCN(S(N)(=O)=O)CC3)no1 [Example E61] | 5.30 to 6.30 | 5.82 |  | 
9 | CC(C)n1nccc1-c1nc([C@@H]2CC23CCN(S(N)(=O)=O)CC3)no1 [Example E62] | 5.30 to 6.30 | 5.82 |  | 
10 | NS(=O)(=O)N1CCC2(CC1)C[C@H]2c1noc(-c2ccc(OCC(F)(F)F)nc2)n1 [Example E63] | 5.30 to 6.30 |  |  | 
11 | Cc1cnn(C2CC2)c1-c1nc([C@@H]2CC23CCN(S(N)(=O)=O)CC3)no1 [Example E64] | 5.30 to 6.30 | 6.28 |  | 
12 | Cn1nc2c(c1-c1nc([C@@H]3CC34CCN(S(N)(=O)=O)CC4)no1)CCCC2 [Example E65] | 6.30 to 7.00 | 6.38 |  | 
13 | Cn1nc2c(c1-c1nc([C@@H]3C(F)(F)C34CCN(S(N)(=O)=O)CC4)no1)CCCC2 [Example E66] | 6.30 to 7.00 | 6.92 |  | 
14 | NS(=O)(=O)N1CCC2(CC1)[C@H](c1noc(-c3ccccn3)n1)C2(F)F [Example E67] | 5.30 to 6.30 | 5.68 |  | 
15 | NS(=O)(=O)N1CCC2(CC1)[C@H](c1noc(-c3conc3C(F)(F)F)n1)C2(F)F [Example E68] | 5.30 to 6.30 | 6.17 |  | 
16 | NS(=O)(=O)N1CCC2(CC1)C[C@H]2c1noc(-c2cccc3c2CCC3)n1 [Example E69] | > 7.00 |  |  | 
17 | NS(=O)(=O)N1CCC2(CC1)C[C@H]2c1noc(-c2cccc(-n3nccc3C(F)(F)F)c2)n1 [Example E70] | 5.30 to 6.30 | 5.64 |  | 
18 | NS(=O)(=O)N1CCC2(CC1)C[C@H]2c1noc(-c2ccccc2Oc2ccccc2)n1 [Example E71] | 6.30 to 7.00 | 6.44 |  | 
19 | NS(=O)(=O)N1CCC2(CC1)C[C@H]2c1noc(-c2ccc3c(c2)CCCC3)n1 [Example E72] | 6.30 to 7.00 | 6.96 |  | 
20 | NS(=O)(=O)N1CCC2(CC1)C[C@H]2c1noc(-c2ccccc2-n2cccc2)n1 [Example E73] | 5.30 to 6.30 | 6.19 |  | 
21 | NS(=O)(=O)N1CCC2(CC1)C[C@H]2c1noc(-c2cccc(-c3ccc(F)cc3)c2)n1 [Example E74] | 6.30 to 7.00 |  |  | 
22 | N#CC1(c2ccccc2-c2nc([C@@H]3CC34CCN(S(N)(=O)=O)CC4)no2)CC1 [Example E75] | 4.30 to 5.30 | 5.20 |  | 
23 | NS(=O)(=O)N1CCC2(CC1)C[C@H]2c1noc(-c2ccccc2-c2ncccn2)n1 [Example E76] | 5.30 to 6.30 | 5.49 |  | 
24 | NS(=O)(=O)N1CCC2(CC1)C[C@H]2c1noc(-c2ccccc2-n2cccn2)n1 [Example E77] | 5.30 to 6.30 | 6.07 |  | 
25 | NS(=O)(=O)N1CCC2(CC1)C[C@H]2c1noc(-c2ncccc2OCC(F)(F)F)n1 [Example E78] | 5.30 to 6.30 | 5.92 |  | 
26 | NS(=O)(=O)N1CCC2(CC1)C[C@H]2c1nnc(-c2cccc(OC(F)F)c2)s1 [Example F10] |  |  | 450 nM | 6.30 to 7.00
27 | Cc1onc(C2CC2)c1-c1nnc([C@@H]2CC23CCN(S(N)(=O)=O)CC3)o1 [Example F11] |  |  | 410 nM | 6.30 to 7.00

Now from value to compound, other results behind:

Row | pEC50 [1] | pEC50 [2] | SMILES | EC50 [3] | pEC50 [4]
28 | 5.30 to 6.30 | 5.82 | NS(=O)(=O)N1CCC2(CC1)C[C@H]2c1nnc(-c2ccc(F)cc2C(F)(F)F)o1 [Example F1] |  | 
29 | 5.30 to 6.30 |  | NS(=O)(=O)N1CCC2(CC1)C[C@H]2c1nnc(-c2cccc(C(F)(F)F)c2)o1 [Example F2] |  | 
30 | 5.30 to 6.30 | 6.15 | NS(=O)(=O)N1CCC2(CC1)C[C@H]2c1nnc(-c2cccc(OC(F)(F)F)c2)o1 [Example F3] |  | 
31 | 5.30 to 6.30 | 5.96 | NS(=O)(=O)N1CCC2(CC1)C[C@H]2c1nnc(-c2cc(F)ccc2F)s1 [Example F4] |  | 
32 | 6.30 to 7.00 | 6.38 | Cc1ccc(F)cc1-c1nnc([C@@H]2CC23CCN(S(N)(=O)=O)CC3)o1 [Example F5] |  | 
33 | 5.30 to 6.30 | 6.23 | NS(=O)(=O)N1CCC2(CC1)C[C@H]2c1nnc(-c2ccccc2OCC(F)(F)F)o1 [Example F6] |  | 
34 | 6.30 to 7.00 | 6.32 | NS(=O)(=O)N1CCC2(CC1)C[C@H]2c1nnc(-c2ccccc2OCC(F)(F)F)s1 [Example F7] |  | 
35 | 5.30 to 6.30 | 6.12 | Cc1ccccc1-c1nnc([C@@H]2CC23CCN(S(N)(=O)=O)CC3)s1 [Example F8] |  | 
36 | 5.30 to 6.30 | 6.12 | NS(=O)(=O)N1CCC2(CC1)C[C@H]2c1nnc(-c2ccc(F)cc2C(F)(F)F)s1 [Example F9] |  | 
37 | 5.30 to 6.30 | 6.07 | Cc1onc(C2CC2)c1-c1nnc([C@@H]2CC23CCN(S(N)(=O)=O)CC3)s1 [Example F12] |  | 
38 | 6.30 to 7.00 | 6.40 | Cc1ccccc1-c1nnc([C@@H]2C(F)(F)C23CCN(S(N)(=O)=O)CC3)o1 [Example F13] |  | 
39 | 6.30 to 7.00 | 6.54 | Cc1ccccc1-c1nnc([C@@H]2C(F)(F)C23CCN(S(N)(=O)=O)CC3)s1 [Example F14] |  | 
40 | 5.30 to 6.30 | 5.40 | NS(=O)(=O)N1CCC2(CC1)C[C@H]2c1nc(-c2ccccc2)co1 [Example G1] |  | 
41 | 5.30 to 6.30 | 6.04 | NS(=O)(=O)N1CCC2(CC1)C[C@H]2c1csc(-c2conc2C2CC2)n1 [Example G2] |  | 
42 | 5.30 to 6.30 |  | Cc1noc(C)c1-n1cc([C@@H]2CC23CCN(S(N)(=O)=O)CC3)cn1 [Example G3] |  | 
43 | 6.30 to 7.00 | 6.96 | NS(=O)(=O)N1CCC2(CC1)[C@H](c1csc(-c3conc3C3CC3)n1)C2(F)F [Example G4] |  | 
44 | > 7.00 | 7.04 | NS(=O)(=O)N1CCC2(CC1)[C@H](c1ncc(-c3ccc(F)cc3C(F)(F)F)o1)C2(F)F [Example G5] |  | 
45 | > 7.00 | 7.07 | NS(=O)(=O)N1CCC2(CC1)[C@H](c1cc(-c3ccnc(OC(F)F)c3)no1)C2(F)F [Example G6] |  | 
46 | 5.30 to 6.30 | 5.80 | Cn1cc(-c2conc2C2CC2)nc1[C@@H]1C(F)(F)C12CCN(S(N)(=O)=O)CC2 [Example G7] |  | 
47 | > 7.00 | 7.80 | NS(=O)(=O)N1CCC2(CC1)[C@H](c1cc(-c3conc3C3CC3)no1)C2(F)F [Example G8] |  | 
48 | > 7.00 | 7.11 | NS(=O)(=O)N1CCC2(CC1)[C@H](c1cc(-c3ccc(F)cc3C(F)(F)F)on1)C2(F)F [Example G9] |  | 
49 | > 7.00 | 7.55 | NS(=O)(=O)N1CCC2(CC1)[C@H](c1nc(-c3ccc(F)cc3C(F)(F)F)co1)C2(F)F [Example G10] |  | 
